Measurements published in ChEMBL document CHEMBL3244076, “N,N'-(Phenylene)dioxamic acids and their esters as antiallergy agents” (1978).

Assays:
Assay type in all cases: functional
Rattus norvegicus [1] = test: Antiallergic activity in anti-egg albumin homocytotropic antibody-sensitized Sprague-Dawley rat assessed as inhibition of passive cutaneous anaphylaxis reaction at 50 mg/kg, po administered 60 mins prior to antigen egg albumin challenge
Rattus norvegicus [2] = test: Antiallergic activity in anti-egg albumin homocytotropic antibody-sensitized Sprague-Dawley rat assessed as inhibition of passive cutaneous anaphylaxis reaction at 50 mg/kg, po administered 5 mins prior to antigen egg albumin challenge
Rattus norvegicus [3] = test: Antiallergic activity in anti-egg albumin homocytotropic antibody-sensitized Sprague-Dawley rat assessed as inhibition of passive cutaneous anaphylaxis reaction at 50 mg/kg, po administered 20 mins prior to antigen egg albumin challenge
Rattus norvegicus [4] = test: Antiallergic activity in anti-egg albumin homocytotropic antibody-sensitized Sprague-Dawley rat assessed as time of peak action for inhibition of passive cutaneous anaphylaxis reaction at 50 mg/kg, po administered prior to antigen egg albumin challenge
Rattus norvegicus [5] = test: Antiallergic activity in anti-egg albumin homocytotropic antibody-sensitized Sprague-Dawley rat assessed as inhibition of passive cutaneous anaphylaxis reaction at 50 mg/kg, po administered 120 mins prior to antigen egg albumin challenge
Rattus norvegicus [6] = test: Antiallergic activity in anti-egg albumin homocytotropic antibody-sensitized Sprague-Dawley rat assessed as inhibition of passive cutaneous anaphylaxis reaction at 10 mg/kg, po administered 5 mins prior to antigen egg albumin challenge
Rattus norvegicus [7] = test: Antiallergic activity in anti-egg albumin homocytotropic antibody-sensitized Sprague-Dawley rat assessed as inhibition of passive cutaneous anaphylaxis reaction at 10 mg/kg, po administered 20 mins prior to antigen egg albumin challenge
Rattus norvegicus [8] = test: Antiallergic activity in anti-egg albumin homocytotropic antibody-sensitized Sprague-Dawley rat assessed as inhibition of passive cutaneous anaphylaxis reaction at 10 mg/kg, po administered 60 mins prior to antigen egg albumin challenge
Rattus norvegicus [9] = test: Antiallergic activity in anti-egg albumin homocytotropic antibody-sensitized Sprague-Dawley rat assessed as inhibition of passive cutaneous anaphylaxis reaction at 1 mg/kg, iv administered at the time of antigen egg albumin challenge
Rattus norvegicus [10] = test: Antiallergic activity in anti-egg albumin homocytotropic antibody-sensitized Sprague-Dawley rat assessed as inhibition of passive cutaneous anaphylaxis reaction at 0.01 mg/kg, iv administered at the time of antigen egg albumin challenge
Rattus norvegicus [11] = test: Antiallergic activity in anti-egg albumin homocytotropic antibody-sensitized Sprague-Dawley rat assessed as inhibition of passive cutaneous anaphylaxis reaction at 0.1 mg/kg, iv administered at the time of antigen egg albumin challenge
Rattus norvegicus [12] = test: Antiallergic activity in anti-egg albumin homocytotropic antibody-sensitized Sprague-Dawley rat assessed as inhibition of passive cutaneous anaphylaxis reaction at 0.001 mg/kg, iv administered at the time of antigen egg albumin challenge
Rattus norvegicus [13] = test: Antiallergic activity in anti-egg albumin homocytotropic antibody-sensitized Sprague-Dawley rat assessed as inhibition of passive cutaneous anaphylaxis reaction at 50 mg/kg, po administered prior to antigen egg albumin challenge

Row | SMILES | inhibition in vivo at 50 mg/kg (Rattus norvegicus [1]) [%] | inhibition in vivo at 50 mg/kg (Rattus norvegicus [2]) [%] | inhibition in vivo at 50 mg/kg (Rattus norvegicus [3]) [%] | inhibition in vivo at 1 mg/kg (Rattus norvegicus [9]) [%] | inhibition in vivo at 0.1 mg/kg (Rattus norvegicus [11]) [%] | also measured
1 | CCOC(=O)C(=O)Nc1cccc(NC(=O)C(=O)OCC)c1F | 0 | – | – | – | – | –
2 | CCOC(=O)C(=O)Nc1cccc(NC(=O)C(=O)OCC)c1Cl | 1.8 | 53 | 17 | – | – | Time (Rattus norvegicus [4]): 5 min
3 | CCOC(=O)C(=O)Nc1cccc(NC(=O)C(=O)OCC)c1C(=O)OC | 15 | – | 27 | – | – | inhibition in vivo at 50 mg/kg (Rattus norvegicus [5]): 0%
4 | CCOC(=O)C(=O)Nc1cccc(NC(=O)C(=O)OCC)c1C | – | 28 | 53 | – | – | –
5 | CCOC(=O)C(=O)Nc1cccc(NC(=O)C(=O)OCC)c1OC | 22 | 72 | 11 | – | – | –
6 | CCOC(=O)C(=O)Nc1ccc(C)c(NC(=O)C(=O)OCC)c1 | 12 | 17 | 38 | – | – | –
7 | CCCCc1ccc(NC(=O)C(=O)OCC)cc1NC(=O)C(=O)OCC | 5 | 0 | 0 | – | – | inhibition in vivo at 50 mg/kg (Rattus norvegicus [5]): 0%
8 | CCOC(=O)C(=O)Nc1ccc(OC)c(NC(=O)C(=O)OCC)c1 | 11 | 50 | 70 | – | – | inhibition in vivo at 50 mg/kg (Rattus norvegicus [5]): 45%
9 | CCOC(=O)C(=O)Nc1ccc(C#N)c(NC(=O)C(=O)OCC)c1 | – | – | – | – | – | inhibition in vivo at 10 mg/kg (Rattus norvegicus [6]): 7%; inhibition in vivo at 10 mg/kg (Rattus norvegicus [7]): 19%; inhibition in vivo at 10 mg/kg (Rattus norvegicus [8]): 19%
10 | CCOC(=O)C(=O)Nc1ccc(F)c(NC(=O)C(=O)OCC)c1 | 18 | 74 | 64 | – | – | –
11 | CCOC(=O)C(=O)Nc1cc(NC(=O)C(=O)OCC)cc(OC)c1 | 0 | – | 4 | – | – | inhibition in vivo at 50 mg/kg (Rattus norvegicus [5]): 29%
12 | CCOC(=O)C(=O)Nc1cc(NC(=O)C(=O)OCC)cc(C(=O)O)c1 | 0 | 14 | 0 | – | – | inhibition in vivo at 50 mg/kg (Rattus norvegicus [5]): 20%
13 | CCOC(=O)C(=O)Nc1cc(NC(=O)C(=O)OCC)cc([N+](=O)[O-])c1 | 6 | 0 | 0 | – | – | –
14 | CCOC(=O)C(=O)Nc1cc(NC(=O)C(=O)OCC)cc(NC(=O)C(=O)OCC)c1 | 5 | – | 0 | – | – | inhibition in vivo at 50 mg/kg (Rattus norvegicus [5]): 0%
15 | CCOC(=O)C(=O)Nc1cc(NC(C)=O)cc(NC(=O)C(=O)OCC)c1 | 0 | 6 | 1 | – | – | inhibition in vivo at 50 mg/kg (Rattus norvegicus [5]): 24%
16 | CCOC(=O)C(=O)Nc1cc(C)cc(NC(=O)C(=O)OCC)c1Cl | 0 | – | 26 | – | – | inhibition in vivo at 50 mg/kg (Rattus norvegicus [5]): 3%
17 | CCOC(=O)C(=O)Nc1cc(C(=O)O)cc(NC(=O)C(=O)OCC)c1Cl | 15 | 15 | 41 | – | – | inhibition in vivo at 50 mg/kg (Rattus norvegicus [5]): 9%
18 | CCOC(=O)C(=O)Nc1cc(C(=O)OC)cc(NC(=O)C(=O)OCC)c1Cl | 0 | – | 7 | – | – | inhibition in vivo at 50 mg/kg (Rattus norvegicus [5]): 0%
19 | CCOC(=O)C(=O)Nc1cc(C(N)=O)cc(NC(=O)C(=O)OCC)c1Cl | – | 85 | 49 | – | – | –
20 | CCOC(=O)C(=O)Nc1cc(C(C)=O)cc(NC(=O)C(=O)OCC)c1Cl | 37 | – | 14 | – | – | inhibition in vivo at 50 mg/kg (Rattus norvegicus [5]): 31%
21 | CCOC(=O)C(=O)Nc1cc(C(F)(F)F)cc(NC(=O)C(=O)OCC)c1Cl | 4 | 10 | 10 | – | – | –
22 | CCOC(=O)C(=O)Nc1cc(S(C)(=O)=O)cc(NC(=O)C(=O)OCC)c1Cl | 0 | 0 | 0 | – | – | –
23 | CCOC(=O)C(=O)Nc1cc(-c2ccccc2)cc(NC(=O)C(=O)OCC)c1Cl | – | 25 | 25 | – | – | –
24 | CCOC(=O)C(=O)Nc1c([N+](=O)[O-])cc([N+](=O)[O-])c(NC(=O)C(=O)OCC)c1Cl | 0 | – | 25 | – | – | –
25 | CCOC(=O)C(=O)Nc1cc(C(=O)O)cc(NC(=O)C(=O)OCC)c1C | 0 | 0 | 0 | – | – | inhibition in vivo at 50 mg/kg (Rattus norvegicus [5]): 0%
26 | CCOC(=O)C(=O)Nc1cc(C(F)(F)F)cc(NC(=O)C(=O)OCC)c1C#N | 0 | 50 | 25 | – | – | –
27 | CCOC(=O)C(=O)Nc1cc(C(=O)OC)c(Cl)c(NC(=O)C(=O)OCC)c1Cl | 0 | – | 0 | – | – | inhibition in vivo at 50 mg/kg (Rattus norvegicus [5]): 0%

Row | SMILES | inhibition in vivo at 50 mg/kg (Rattus norvegicus [1]) [%] | inhibition in vivo at 50 mg/kg (Rattus norvegicus [2]) [%] | inhibition in vivo at 50 mg/kg (Rattus norvegicus [3]) [%] | inhibition in vivo at 1 mg/kg (Rattus norvegicus [9]) [%] | inhibition in vivo at 0.1 mg/kg (Rattus norvegicus [11]) [%] | also measured
28 | CCOC(=O)C(=O)Nc1cc(NC(=O)C(=O)OCC)c(Cl)cc1Cl | 25 | – | 50 | – | – | –
29 | CCOC(=O)C(=O)Nc1cc(NC(=O)C(=O)OCC)c([N+](=O)[O-])cc1[N+](=O)[O-] | 9 | – | 17 | – | – | –
30 | CCOC(=O)C(=O)Nc1cc(C#N)c(Cl)c(NC(=O)C(=O)OCC)c1 | 0 | 100 | 20 | – | – | –
31 | CCOC(=O)C(=O)Nc1cc(NC(=O)C(=O)OCC)c(Cl)c(-c2ccccc2)c1 | 51 | 72 | 10 | – | – | –
32 | O=C(O)C(=O)Nc1cccc(NC(=O)C(=O)O)c1 | – | – | – | 82 | 73 | inhibition in vivo at 0.01 mg/kg (Rattus norvegicus [10]): 0%
33 | O=C(O)C(=O)Nc1cccc(NC(=O)C(=O)O)c1Cl | – | – | – | 75 | 32 | –
34 | COc1ccc(NC(=O)C(=O)O)cc1NC(=O)C(=O)O | – | – | – | 100 | 0 | –
35 | N#Cc1ccc(NC(=O)C(=O)O)cc1NC(=O)C(=O)O | – | – | – | 87 | 8 | –
36 | O=C(O)C(=O)Nc1ccc(F)c(NC(=O)C(=O)O)c1 | – | – | – | 100 | 41 | –
37 | NC(=O)c1cc(NC(=O)C(=O)O)cc(NC(=O)C(=O)O)c1 | – | – | – | 91 | 17 | –
38 | N#Cc1cc(NC(=O)C(=O)O)cc(NC(=O)C(=O)O)c1 | – | – | – | – | 90 | inhibition in vivo at 0.01 mg/kg (Rattus norvegicus [10]): 57%
39 | CC(=O)Nc1cc(NC(=O)C(=O)O)cc(NC(=O)C(=O)O)c1 | – | – | – | 47 | 11 | inhibition in vivo at 0.01 mg/kg (Rattus norvegicus [10]): 0%
40 | Cc1cc(NC(=O)C(=O)O)c(Cl)c(NC(=O)C(=O)O)c1 | – | – | – | 100 | 91 | inhibition in vivo at 0.01 mg/kg (Rattus norvegicus [10]): 20%; inhibition in vivo at 0.001 mg/kg (Rattus norvegicus [12]): 2%
41 | NC(=O)c1cc(NC(=O)C(=O)O)c(Cl)c(NC(=O)C(=O)O)c1 | – | – | – | 90 | 28 | inhibition in vivo at 0.01 mg/kg (Rattus norvegicus [10]): 0%
42 | CC(=O)c1cc(NC(=O)C(=O)O)c(Cl)c(NC(=O)C(=O)O)c1 | – | – | – | 88 | 22 | inhibition in vivo at 0.01 mg/kg (Rattus norvegicus [10]): 0%
43 | O=C(O)C(=O)Nc1cc(C(F)(F)F)cc(NC(=O)C(=O)O)c1Cl | – | – | – | – | 100 | inhibition in vivo at 0.01 mg/kg (Rattus norvegicus [10]): 90%; inhibition in vivo at 0.001 mg/kg (Rattus norvegicus [12]): 0%
44 | O=C(O)C(=O)Nc1cc(-c2ccccc2)cc(NC(=O)C(=O)O)c1Cl | – | – | – | 94 | 87 | inhibition in vivo at 0.01 mg/kg (Rattus norvegicus [10]): 44%
45 | O=C(O)C(=O)Nc1cc(NC(=O)C(=O)O)c(Cl)cc1Cl | – | – | – | 81 | 25 | inhibition in vivo at 0.01 mg/kg (Rattus norvegicus [10]): 0%
46 | N#Cc1cc(NC(=O)C(=O)O)cc(NC(=O)C(=O)O)c1Cl | – | – | – | 100 | 100 | inhibition in vivo at 0.01 mg/kg (Rattus norvegicus [10]): 20%; inhibition in vivo at 0.001 mg/kg (Rattus norvegicus [12]): 0%
47 | O=C(O)C(=O)Nc1cc(CS(=O)O)cc(NC(=O)C(=O)O)c1Cl | – | – | – | 85 | 10 | –
48 | CCCCOC(=O)C(=O)Nc1cc(C#N)cc(NC(=O)C(=O)OCCCC)c1Cl | – | – | – | – | – | Time (Rattus norvegicus [4]): 5 min; inhibition in vivo at 50 mg/kg (Rattus norvegicus [13]): 100%
49 | CCCCCCOC(=O)C(=O)Nc1cc(C#N)cc(NC(=O)C(=O)OCCCCCC)c1Cl | – | – | – | – | – | Time (Rattus norvegicus [4]): 5 min; inhibition in vivo at 50 mg/kg (Rattus norvegicus [13]): 51%
50 | N#Cc1cc(NC(=O)C(=O)OC23CC4CC(CC(C4)C2)C3)c(Cl)c(NC(=O)C(=O)OC23CC4CC(CC(C4)C2)C3)c1 | – | – | – | – | – | Time (Rattus norvegicus [4]): 60 min; inhibition in vivo at 50 mg/kg (Rattus norvegicus [13]): 50%
51 | O=C(O)C(=O)Nc1ccc(NC(=O)C(=O)O)cc1 | – | – | – | 18 | – | –
52 | N#Cc1cc(NC(=O)C(=O)O)ccc1NC(=O)C(=O)O | – | – | – | 45 | – | –
53 | O=C(O)C(=O)Nc1cc(Cl)c(NC(=O)C(=O)O)cc1Cl | – | – | – | 73 | – | –
